Here are results for nine compounds from patent US20230277698A1, “SILICON-CONTAINING LIGAND COMPOUNDS” (Technische Universität München, priority 2020, published 2023).

For the data set, the target named is human serum albumin (HSA) (Homo sapiens, UniProt P02768). Description: HSA binding by radio inversed affinity chromatography (RIAC). Format: in vitro ADME. As to conditions: 177Lu-labelled; Superdex 75 Increase 10/300 GL, 700 μM HSA in PBS, 0.8 mL/min. The procedure:
A gel filtration column Superdex 75 Increase 10/300 GL (GE Healthcare, Uppsala, Sweden) was beforehand calibrated following the producer's recommendations with a commercially available gel filtration calibration kit (GE Healthcare, Buckinghamshire, UK) comprising conalbumin (MW: 75 kDa), ovalbumin (44 kDa), carbonic anhydrase (29 kDa), ribonuclease A (13.7 kDa) and aprotinin (6.5 kDa) as reference proteins of known molecular weight. RIAC experiments were conducted using a constant flow rate of 0.8 mL/min at rt. A solution of HSA in PBS at physiological concentration (700 μM) was used as the mobile phase. PSMA ligands were labelled as described with molar activities of 10-20 GBq/μmol. Probes of 1.0 MBq of the radioligand were injected directly from the labelling solution. HSA binding was expressed as an apparent molecular weight MW calculated from the retention time of the radioligand using the determined calibration curve.
The following table summarizes the underlying data. MW: molecular weight. tR: experimentally determined retention time. V: elution volume. Kav: partition coefficient.
RIAC, in an inversed way, comprises ligand samples (radiolabeled PSMA ligands) and a protein (HSA) containing mobile phase. Ligand-specific retention is caused by interaction of the ligand probe and HSA in the mobile phase. Unbound species, due to a molecular weight beneath the molecular cut off of the gel filtration column, are maximally retained while bound species are eluted in accordance to the higher molecular weight of the ligand-HSA-complex (MWHSA: 66.47 kDa). Experiments show a single radiopeak indicating a dynamic process of formation and dissociation of the ligand-HSA-complex throughout the passage through the column bed. Accordingly, the absolute retention time is the result of the ligand's mean time of abidance at HSA which is directly defined by the ligand's binding kinetics and affinity toward HSA. For evaluation, experimentally determined retention times tR are first converted into elution volumes Ve by multiplying with the flow rate and thereafter converted into partition coefficients Kav following the equation
where V0 is the column void volume (8.027 mL) and Vc is the geometric column volume (24 mL). Using the equation given by the trend line plot of the column calibration
the apparent molecular weight MW is calculated as
FIG. 7 and the table below show the results HSA-binding of lutetium-complexed PSMA-ligands and reference compounds determined by RIAC on a Superdex 75 Increase 10/300 GL column 700 μM HSA in PBS as solvent using a constant flow rate of 0.8 mL/min (plotted data, extracted from FIG. 8).
FIG. 8 illustrates the determination of HSA binding via radio inverse affinity chromatography (RIAC). Correlation of apparent molecular weight (MW) in Dalton (Da) and retention time of ^177Lu-labeled samples, determined on a Superdex 75 Increase 10/300 GL with 700 μM HSA in PBS as solvent using a constant flow rate of 0.8 mL/min.

human serum albumin (HSA), sequence (P02768 25-609): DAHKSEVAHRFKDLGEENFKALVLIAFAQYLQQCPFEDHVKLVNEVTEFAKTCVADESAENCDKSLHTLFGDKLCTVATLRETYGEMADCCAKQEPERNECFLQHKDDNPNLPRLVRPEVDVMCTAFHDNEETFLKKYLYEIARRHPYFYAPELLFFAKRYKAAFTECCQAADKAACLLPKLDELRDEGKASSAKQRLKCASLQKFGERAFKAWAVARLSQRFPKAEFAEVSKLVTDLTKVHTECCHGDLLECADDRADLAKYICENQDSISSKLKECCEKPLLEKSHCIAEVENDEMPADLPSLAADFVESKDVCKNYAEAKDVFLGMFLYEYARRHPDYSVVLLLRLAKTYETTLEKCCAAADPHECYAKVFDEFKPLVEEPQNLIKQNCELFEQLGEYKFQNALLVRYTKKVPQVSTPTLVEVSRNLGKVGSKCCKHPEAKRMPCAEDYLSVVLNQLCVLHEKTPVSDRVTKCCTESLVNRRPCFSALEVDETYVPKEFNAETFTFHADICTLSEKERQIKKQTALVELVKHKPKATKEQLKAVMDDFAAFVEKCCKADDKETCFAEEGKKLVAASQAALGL

For the compound `CC(C)(C)[Si](O)(c1ccc(C(=O)NC[C@@H](NC(=O)CC[C@@H](C(=O)O)N2CCN(CC(=O)O)CCN(CC(=O)O)CCN(CC(=O)O)CC2)C(=O)N[C@H](CCCCNC(=O)CCC(=O)NCCC[C@@H](NC(=O)CC[C@H](NC(=O)N[C@@H](CCC(=O)O)C(=O)O)C(=O)O)C(=O)O)C(=O)O)cc1)C(C)(C)C` [7.3-SiOH], the “HSA-binding RIAC (apparent molecular weight)” value is reported as 10.1 kDa.
The result for `CC(C)(C)[Si](O)(c1ccc(C(=O)NC[C@@H](NC(=O)CC[C@@H](C(=O)O)N2CCN(CC(=O)O)CCN(CC(=O)O)CCN(CC(=O)O)CC2)C(=O)N[C@H](CO)C(=O)NCCC(=O)NCCC(=O)NCCC[C@@H](NC(=O)CC[C@H](NC(=O)N[C@@H](CCC(=O)O)C(=O)O)C(=O)O)C(=O)O)cc1)C(C)(C)C` [C007-SiOH] reads 8.0 kDa; that for `CC(C)(C)[Si](O)(c1ccc(C(=O)NC[C@@H](NC(=O)CC[C@@H](C(=O)O)N2CCN(CC(=O)O)CCN(CC(=O)O)CCN(CC(=O)O)CC2)C(=O)NCC(=O)N[C@@H](CCCCNC(=O)CCC(=O)NCCC[C@@H](NC(=O)CC[C@H](NC(=O)N[C@@H](CCC(=O)O)C(=O)O)C(=O)O)C(=O)O)C(=O)O)cc1)C(C)(C)C` [E102-SiOH], 9.3 kDa; that for `CC(C)(C)[Si](O)(c1ccc(C(=O)NC[C@@H](NC(=O)CCCCCNC(=O)CCCNC(=O)CC[C@@H](NC(=O)CCC(NC(=O)N[C@@H](CCC(=O)O)C(=O)O)C(=O)O)C(=O)O)C(=O)NCC(=O)N[C@@H](CCCCNC(=O)CC[C@@H](C(=O)O)N2CCN(CC(=O)O)CCN(CC(=O)O)CCN(CC(=O)O)CC2)C(=O)O)cc1)C(C)(C)C` (stereo partly drawn) [E104-SiOH], 7.8 kDa.
The result for `CC(C)(C)[Si](O)(c1ccc(C(=O)N[C@H](CCC(=O)NC[C@@H](NC(=O)CC[C@@H](C(=O)O)N2CCN(CC(=O)O)CCN(CC(=O)O)CCN(CC(=O)O)CC2)C(=O)NCCCCCC(=O)NCCC[C@@H](NC(=O)CC[C@H](NC(=O)N[C@@H](CCC(=O)O)C(=O)O)C(=O)O)C(=O)O)C(=O)O)cc1)C(C)(C)C` [P105-SiOH] reads 10.4 kDa; that for `CC(C)(C)[Si](O)(c1ccc(C[N+](C)(C)CC(=O)NCCC[C@@H](NC(=O)CC[C@@H](C(=O)O)N2CCN(CC(=O)O)CCN(CC(=O)O)CCN(CC(=O)O)CC2)C(=O)NCCCCCC(=O)NCCC[C@@H](NC(=O)CC[C@H](NC(=O)N[C@@H](CCC(=O)O)C(=O)O)C(=O)O)C(=O)O)cc1)C(C)(C)C` [P110-SiOH], 5.2 kDa; that for `O=C(O)CC[C@H](NC(=O)N[C@@H](CCCCNC(=O)[C@H](Cc1ccc2ccccc2c1)NC(=O)[C@H]1CC[C@H](CNC(=O)CN2CCN(CC(=O)O)CCN(CC(=O)O)CCN(CC(=O)O)CC2)CC1)C(=O)O)C(=O)O` [PSMA-617, reference compound], 13.7 kDa.
The result for `CC(C)(C)[Si](F)(c1ccc(C(=O)NC[C@@H](NC(=O)CC[C@@H](C(=O)O)N2CCN(CC(=O)O)CCN(CC(=O)O)CCN(CC(=O)O)CC2)C(=O)N[C@H](CCCCNC(=O)CCC(=O)NCCC[C@@H](NC(=O)CC[C@H](NC(=O)N[C@@H](CCC(=O)O)C(=O)O)C(=O)O)C(=O)O)C(=O)O)cc1)C(C)(C)C` [rhPSMA-7.3, reference compound] reads 30.2 kDa.
Regarding `CC(C)(C)[Si](F)(c1ccc(C(=O)NC[C@@H](NC(=O)CN2CCN(CC(=O)O)CCN(CC(=O)O)CCN(CC(=O)O)CC2)C(=O)N[C@H](CCCCNC(=O)CCC(=O)NCCC[C@@H](NC(=O)CC[C@H](NC(=O)N[C@@H](CCC(=O)O)C(=O)O)C(=O)O)C(=O)O)C(=O)O)cc1)C(C)(C)C` [rhPSMA-10, reference compound], the “HSA-binding RIAC (apparent molecular weight)” value turned out to be 25.4 kDa.
